Measurements published in article PMC2837340 (ACS Chemical Neuroscience, 2009).

What was measured:
[1] = target: horse spleen apoferritin (HSAF) (Equus caballus, UniProt P02791); assay: isothermal titration calorimetry; type: binding
[2] = target: T1, Shaw2 K+ channel (Shaw2 F335A) (Drosophila melanogaster, UniProt P17972, F335A); assay: two-electrode voltage clamp, Xenopus oocytes; type: cell-based; details: read-out: % inhibition at 2 mM
T1 sequence (P17972 1-498 F335A): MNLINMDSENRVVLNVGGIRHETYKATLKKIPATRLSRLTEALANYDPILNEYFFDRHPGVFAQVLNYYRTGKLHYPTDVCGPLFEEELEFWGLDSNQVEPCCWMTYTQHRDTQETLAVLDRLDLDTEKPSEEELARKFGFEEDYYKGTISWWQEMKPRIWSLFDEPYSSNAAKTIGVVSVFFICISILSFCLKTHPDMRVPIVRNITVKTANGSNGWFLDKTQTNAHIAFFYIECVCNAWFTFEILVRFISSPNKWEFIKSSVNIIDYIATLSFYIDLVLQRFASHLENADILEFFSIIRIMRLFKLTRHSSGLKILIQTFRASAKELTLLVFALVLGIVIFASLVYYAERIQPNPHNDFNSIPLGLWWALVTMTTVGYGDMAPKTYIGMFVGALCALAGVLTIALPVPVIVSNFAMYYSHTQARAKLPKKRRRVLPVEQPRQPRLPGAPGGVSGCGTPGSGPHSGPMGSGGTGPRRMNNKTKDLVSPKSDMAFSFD

Sequence of horse spleen apoferritin (HSAF) (P02791 2-175): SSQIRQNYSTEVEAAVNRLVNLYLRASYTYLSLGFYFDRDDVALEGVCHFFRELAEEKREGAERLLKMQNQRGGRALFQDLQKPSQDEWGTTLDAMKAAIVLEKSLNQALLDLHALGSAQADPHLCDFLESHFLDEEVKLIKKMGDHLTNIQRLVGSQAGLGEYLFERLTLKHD
Sequence of horse spleen apoferritin (HSAF) (Q8MIP0 2-182 partner): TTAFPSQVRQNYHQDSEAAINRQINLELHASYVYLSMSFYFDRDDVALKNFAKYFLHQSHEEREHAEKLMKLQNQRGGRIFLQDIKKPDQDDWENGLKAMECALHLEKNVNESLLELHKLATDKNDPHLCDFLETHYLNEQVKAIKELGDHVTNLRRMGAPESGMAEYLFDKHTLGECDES

Compound | Kd [1] | inhibition at 2000 µM [2]
FC(F)(F)C(Cl)OC(F)(F)C1N=N1 (racemic) [compound 1, azi-isoflurane] | 6 ± 1 µM | 77 ± 0.2%
FC(F)OC(Cl)C(F)(F)F (stereo not shown) [isoflurane] | 58 ± 2 µM | 67%
